Experimental data: patent US7914776B2, “Solid dispersions of opioid antagonists” (Adolor Corporation, priority 2005, dated 2011)
Entries after “also recorded” stand apart in the source; their conditions may differ. Read-outs that look alike come from different tables or passages of the source.

How the values were obtained:
[1] = Moisture sorption analysis; assay type: physicochemical; details: for XRPD after Moisture Sorption: solid remaining after moisture sorption analysis; for Moisture Sorption: weight lost upon desorption: between 95% and 5% RH
[2] = assay type: physicochemical
Description: Amorphous samples were exposed to ambient, 53%, and 97% relative humidities at ambient temperature (about 10° C. to about 30° C.). The samples were also exposed to 75% relative humidity at 40° C. The samples were stressed for up to 60 days. Samples were taken periodically throughout the study and analyzed by x-ray powder diffraction (XRPD) for presence of crystallinity.
Relative humidity stress studies were performed to assess the stability of amorphous alvimopan and solid dispersions. Studies were performed at ambient, 53%, and 97% relative humidity at ambient temperature. Ambient relative humidity and temperature was measured as approximately 24% and 22° C. Samples were also stressed at 75% relative humidity at 40° C. Samples were analyzed by XRPD for the presence of crystallinity.

[3] = Intrinsic dissolution experiments (Woods apparatus); assay type: physicochemical; details: approximately 37° C., 75 rpm, 900 mL medium, value (SD)
Description: Intrinsic dissolution experiments were conducted in a VanKel VK7010 dissolution apparatus equipped with a VK750A heater/circulator. An intrinsic dissolution apparatus (Woods apparatus) and hydraulic press were used to press samples of approximately 200 mg at approximately 1000 psi for 1 minute, giving a sample surface of 0.50 cm^2. Experiments were conducted in media of pH=1.2 HCl solution and pH =4.5 phosphate solution. 900 mL of medium was used for each experiment and the medium was maintained at approximately 37° C. The apparatus was rotated at 75 rpm. The Cary 50 UV/Vis spectrophotometer was utilized to sample automatically throughout the duration of the experiments.
Samples were analyzed with a Cary 50 UV-VIS double-beam spectrophotometer, and were analyzed in 1.000-cm quartz cuvettes at a wavelength of 271 nm. The detector was zeroed with a cuvette filled with dissolution medium prior to sample analysis. Wavelength calibration was performed using holmium oxide. The photometric accuracy was verified by measuring the intensity of the light at the detector when filters of known optical density were placed in the path of the beam.

[4] = Conversion of amorphous form to crystalline dihydrate form (background statement); assay type: physicochemical
Source text: [[2(S)-[[4(R)-(3-hydroxyphenyl)-3(R),4-dimethyl-piperidinyl]methyl]-1-oxo-3-phenylpropyl]amino]acetic acid may exist in different crystalline forms, including hydrate forms, solvate forms and anhydrous form, and as an amorphous material. Above a relative humidity of about 15%, it exists in its crystalline dihydrate form. Below a relative humidity of about 15%, it exists in its anhydrous form. Amorphous [[2(S)-[[4(R)-(3-hydroxyphenyl)-3(R),4-dimethyl-piperidinyl]methyl]-1-oxo-3-phenylpropyl]amino]acetic acid is hygroscopic and converts to its crystalline dihydrate form when it is stressed, for example, at 54% relative humidity for 12 days or 75% relative humidity in the temperature range of about 40° C. to about 80° C. for three days. Under ambient conditions, amorphous [[2(S)-[[4(R)-(3-hydroxyphenyl)-3(R),4-dimethyl-piperidinyl]methyl]-1-oxo-3-phenylpropyl]amino]acetic acid completely converts to its crystalline dihydrate form after 66 days.

[5] = Solubility in water (statement); assay type: physicochemical; details: statement in words, dihydrate
[6] = Bioavailability (statement); assay type: in vivo; details: statement in words, dihydrate
[7] = listed as Amorphous [[2(S)-[[4(R)-(3-hydroxyphenyl)-3(R),4-dimethyl-piperidinyl]methyl]-1-, sodium salt
[8] = 53% Relative Humidity and Ambient Temperature, 7 days stressed
[9] = 53% Relative Humidity and Ambient Temperature, 17 days stressed
[10] = 53% Relative Humidity and Ambient Temperature, 30 days stressed
[11] = 53% Relative Humidity and Ambient Temperature, 60 days stressed
[12] = 97% Relative Humidity and Ambient Temperature, 7 days stressed
[13] = ambient conditions (approximately 24% relative humidity and 22° C.), 7 days stressed
[14] = ambient conditions (approximately 24% relative humidity and 22° C.), 17 days stressed
[15] = ambient conditions (approximately 24% relative humidity and 22° C.), 30 days stressed
[16] = listed as Amorphous [[2(S)-[[4(R)-(3-hydroxyphenyl)-3(R),4-dimethyl-piperidinyl]methyl]-1-
[17] = 75% Relative Humidity and 40° C., 7 days stressed
[18] = ambient conditions (approximately 24% relative humidity and 22° C.), 60 days stressed
[19] = ambient conditions (approximately 24% relative humidity and 22° C.), 43 days stressed
[20] = listed as Amorphous Alvimopan Prepared by Rotary Evaporation
[21] = listed as rotary evaporated sample

C[C@H]1CN(C[C@H](Cc2ccccc2)C(=O)NCC(=O)[O-])CC[C@@]1(C)c1cccc(O)c1.[Na+] [[[2(S)-[[4(R)-(3-hydroxyphenyl)-3(R),4-dimethyl-piperidinyl]methyl]-1-oxo-3-phenylpropyl]amino]acetic acid sodium salt]
Moisture Sorption: lost upon equilibration at 5% RH [1]: 2.8% lost upon equilibration at 5% RH | XRPD after Moisture Sorption [1, 7]: peak + amorphous | XRPD Result [2, 8]: amorphous + peak | XRPD Result [2, 9]: amorphous + peak | XRPD Result [2, 10]: amorphous + peak | XRPD Result [2, 11]: amorphous + peak | Outcome of stress ([2]; 75% RH and 40° C.): deliquesced after three days of exposure | Observation [2, 12]: white solids; slight | XRPD Result [2, 12]: Form A | Outcome of stress ([2]; 97% relative humidity and ambient temperature): likely crystallized to Form A | XRPD Result [2, 13]: amorphous + peak | Observation [2, 14]: off-white, yellow | XRPD Result [2, 14]: amorphous + peak | Observation [2, 15]: off-white, yellow | XRPD Result [2, 15]: amorphous + peak

C[C@H]1CN(C[C@H](Cc2ccccc2)C(=O)NCC(=O)O)CC[C@@]1(C)c1cccc(O)c1 [lyophilized; 100° C. vac oven, [[2(S)-[[4(R)-(3-hydroxyphenyl)-3(R),4-dimethyl-piperidinyl]methyl]-1-oxo-3-phenylpropyl]amino]acetic acid]
Moisture Sorption: weight gain between 5% and 95% RH [1, 16]: 13.0% weight gain between 5% and 95% RH | Moisture Sorption: weight gain between 5% and 95% RH ([1]; listed as lyophilized sample): ~13% | Moisture Sorption: weight lost upon desorption [1, 16]: 10.8% weight lost upon desorption | Moisture Sorption: lost upon equilibration at 5% RH [1, 16]: 0.2% lost upon equilibration at 5% RH | XRPD after Moisture Sorption [1, 16]: amorphous | XRPD after Moisture Sorption ([1]; listed as lyophilized sample): remained amorphous | Stability conclusion of the stress studies [2]: stable at 75% relative humidity and 40 °C | XRPD Result [2, 8]: amorphous | XRPD Result [2, 9]: amorphous | XRPD Result [2, 10]: amorphous | XRPD Result [2, 11]: amorphous | Outcome of stress ([2]; 75% RH and 40° C., listed as amorphous alvimopan sample prepared by lyophilization): Crystallization was not observed | XRPD Result [2, 17]: amorphous | XRPD Result ([2]; 75% Relative Humidity and 40° C., 17 days stressed): amorphous | XRPD Result ([2]; 75% Relative Humidity and 40° C., 30 days stressed): amorphous | XRPD Result ([2]; 75% Relative Humidity and 40° C., 60 days stressed): amorphous | Observation [2, 12]: off-white solids; some | XRPD Result [2, 12]: Form A | XRPD Result [2, 13]: amorphous | XRPD Result [2, 14]: amorphous | XRPD Result [2, 15]: amorphous | XRPD Result [2, 18]: amorphous

C[C@H]1CN(C[C@H](Cc2ccccc2)C(=O)NCC(=O)O)CC[C@@]1(C)c1cccc(O)c1 [amorphous preparation, [[2(S)-[[4(R)-(3-hydroxyphenyl)-3(R),4-dimethyl-piperidinyl]methyl]-1-oxo-3-phenylpropyl]amino]acetic acid]
Intrinsic Dissolution Rate, mg/min/cm^2 (SD), pH 1.2 HCl [3]: 0.217 (0.017) mg/min/cm^2 | time stressed after which amorphous form converts to its crystalline dihydrate form ([4]; 54% relative humidity): 12 days | time stressed after which amorphous form converts to its crystalline dihydrate form ([4]; 75% relative humidity, about 40° C. to about 80° C.): three days | time after which amorphous form completely converts to its crystalline dihydrate form ([4]; ambient conditions): 66 days | Stability conclusion of the stress studies [2]: stable under stress conditions except at 97% relative humidity

C[C@H]1CN(C[C@H](Cc2ccccc2)C(=O)NCC(=O)[O-])CC[C@@]1(C)c1cccc(O)c1.[Na+] [2:1 sodium carbonate attempt; lyophilized; 100° C. vac oven] [[[2(S)-[[4(R)-(3-hydroxyphenyl)-3(R),4-dimethyl-piperidinyl]methyl]-1-oxo-3-phenylpropyl]amino]acetic acid sodium salt]
Moisture Sorption: lost upon equilibration at 5% RH [1, 7]: 0.1% lost upon equilibration at 5% RH | XRPD after Moisture Sorption [1, 7]: deliquescence of the material; also recorded: sample deliquesced | XRPD Result ([2]; 53% Relative Humidity and Ambient Temperature, 13 days stressed): amorphous | XRPD Result ([2]; 53% Relative Humidity and Ambient Temperature, 43 days stressed): amorphous | Observation ([2]; 75% Relative Humidity and 40° C., 3 days stressed, sodium salt): deliquescence; | Outcome of stress ([2]; 97% relative humidity and ambient temperature, listed as 2:1 amorphous [[2(S)-[[4(R)-(3-hydroxyphenyl)-3(R),4-dimethyl-piperidinyl]methyl, sodium salt): deliquesced within three days of exposure | Observation ([2]; ambient conditions (approximately 24% relative humidity and 22° C.), 7 days stressed, sodium salt): off-white, yellow | XRPD Result ([2]; ambient conditions (approximately 24% relative humidity and 22° C.), 13 days stressed): amorphous + peak | XRPD Result ([2]; ambient conditions (approximately 24% relative humidity and 22° C.), 30 days stressed, sodium salt): amorphous + peak; | Observation [2, 19]: white and yellow | XRPD Result [2, 19]: amorphous + peak

C[C@H]1CN(C[C@H](Cc2ccccc2)C(=O)NCC(=O)O)CC[C@@]1(C)c1cccc(O)c1 [crystalline alvimopan, [[2(S)-[[4(R)-(3-hydroxyphenyl)-3(R),4-dimethyl-1-piperidinyl]methyl]-1-oxo-3-phenylpropyl]amino]acetic acid dihydrate]
solubility in water ([5]; listed as Alvimopan): extremely low solubility in water | solubility in water ([5]; listed as alvimopan): lower solubility in water than amorphous | solubility in water ([5]; listed as compound of formula (II)): low solubility in water except at low or high pH conditions | Intrinsic Dissolution Rate, mg/min/cm^2 (SD), pH 1.2 HCl [3]: 0.148 (0.025) mg/min/cm^2 | bioavailability ([6]; listed as Alvimopan): poor oral bioavailability | bioavailability ([6]; listed as alvimopan): lower bioavailability than the amorphous form

C[C@H]1CN(C[C@H](Cc2ccccc2)C(=O)NCC(=O)O)CC[C@@]1(C)c1cccc(O)c1 [ethanol roto evap at 30° C.; 100° C. vac oven] [[[2(S)-[[4(R)-(3-hydroxyphenyl)-3(R),4-dimethyl-piperidinyl]methyl]-1-oxo-3-phenylpropyl]amino]acetic acid]
Moisture Sorption: weight gain between 5% and 95% RH [1, 20]: 13.8% weight gain between 5% and 95% RH | Moisture Sorption: weight gain between 5% and 95% RH [1, 21]: ~13% | Moisture Sorption: weight lost upon desorption [1, 20]: 12.2% weight lost upon desorption | Moisture Sorption: lost upon equilibration at 5% RH [1, 20]: 0.6% lost upon equilibration at 5% RH | XRPD after Moisture Sorption [1, 20]: low crystalline; amorphous, Form A, or Form B | XRPD after Moisture Sorption [1, 21]: crystallized to low crystalline material | Stability conclusion of the stress studies [2]: showed crystallization under this same stress condition | XRPD Result [2, 8]: amorphous | XRPD Result [2, 9]: amorphous | XRPD Result [2, 10]: amorphous | Observation [2, 11]: white solids, | XRPD Result [2, 11]: amorphous | Outcome of stress ([2]; 75% RH and 40° C., listed as Amorphous [[2(S)-[[4(R)-(3-hydroxyphenyl)-3(R),4-dimethyl-piperidinyl]methyl]-1-): crystallized to alvimopan Form A | Observation [2, 17]: white solids; | XRPD Result [2, 17]: PC; Form A | Observation [2, 12]: white solids; some | XRPD Result [2, 12]: Form A | XRPD Result [2, 13]: amorphous | XRPD Result [2, 14]: amorphous | Observation [2, 15]: white solids, flakes; | XRPD Result [2, 15]: amorphous | XRPD Result [2, 18]: amorphous
